Source: ChEMBL document CHEMBL1136016, “Synthesis, biological activity, and molecular modeling investigation of new pyrazolo[4,3-e]-1,2,4-triazolo[1,5-c]pyrimidine derivatives as human A(3) adenosine receptor antagonists” (J Med Chem, 2002)

Experiments:
[1] = molecular target: Adenosine receptors; A1 & A3 (Homo sapiens) (UniProt P30542+P0DMS8); test: Selectivity ratio (hA1/hA3); format: protein assay
[2] = molecular target: Adenosine receptors; A2b & A3 (Homo sapiens) (UniProt P29275+P0DMS8); test: Selectivity ratio (h2B/hA3); format: protein assay

Adenosine receptors; A1 & A3 (Homo sapiens), sequence (P0DMS8 whole entry, looked up): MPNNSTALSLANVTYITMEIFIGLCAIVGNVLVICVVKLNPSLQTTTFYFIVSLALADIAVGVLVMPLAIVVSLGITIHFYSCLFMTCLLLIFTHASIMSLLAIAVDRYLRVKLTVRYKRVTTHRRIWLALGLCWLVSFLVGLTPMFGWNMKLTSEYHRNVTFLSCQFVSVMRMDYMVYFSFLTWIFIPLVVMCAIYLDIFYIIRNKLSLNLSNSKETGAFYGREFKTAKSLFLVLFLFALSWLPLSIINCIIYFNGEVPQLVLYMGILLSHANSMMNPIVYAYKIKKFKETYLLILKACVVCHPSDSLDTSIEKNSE
Adenosine receptors; A1 & A3 (Homo sapiens), sequence (P30542 whole entry, looked up): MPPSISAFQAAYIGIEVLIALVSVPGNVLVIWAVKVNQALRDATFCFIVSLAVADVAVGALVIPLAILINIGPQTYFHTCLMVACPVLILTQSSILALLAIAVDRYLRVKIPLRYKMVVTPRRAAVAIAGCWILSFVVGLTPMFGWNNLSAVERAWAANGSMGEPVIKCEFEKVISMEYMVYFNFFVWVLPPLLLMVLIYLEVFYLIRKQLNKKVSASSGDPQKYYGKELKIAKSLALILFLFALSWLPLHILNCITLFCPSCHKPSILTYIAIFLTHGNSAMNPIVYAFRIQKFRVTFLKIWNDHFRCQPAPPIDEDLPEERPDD

Row | Compound | Ratio [1] | Ratio [2]
1 | Cn1cc2c(nc(NC(=O)Nc3cccc(Cl)c3)n3nc(-c4ccco4)nc23)n1 | 875 | 512
2 | CCn1cc2c(nc(NC(=O)Nc3cccc(Cl)c3)n3nc(-c4ccco4)nc23)n1 | 155 | 93.7
3 | CCCn1cc2c(nc(NC(=O)Nc3cccc(Cl)c3)n3nc(-c4ccco4)nc23)n1 | 33 | 62.6
4 | COc1ccc(NC(=O)Nc2nc3nn(C)cc3c3nc(-c4ccco4)nn23)cc1 | 5480 | 1300
5 | COc1ccc(NC(=O)Nc2nc3ccc(Cl)cc3c3nc(-c4ccco4)nn23)cc1 | 43 | 158
6 | O=C(Nc1cccc(Cl)c1)Nc1nc2ccc(Cl)cc2c2nc(-c3ccco3)nn12 | 54 | 157
7 | CCn1cc2c(nc(NC(=O)Nc3ccc(OC)cc3)n3nc(-c4ccco4)nc23)n1 | 1710 | 408
8 | CCCCn1cc2c(nc(NC(=O)Nc3cccc(Cl)c3)n3nc(-c4ccco4)nc23)n1 | 408 | 116
9 | CCCCn1cc2c(nc(NC(=O)Nc3ccc(OC)cc3)n3nc(-c4ccco4)nc23)n1 | 925 | 946
